Assay results from patent US12128040B2, “Selective estrogen receptor degraders” (Eli Lilly and Company, priority 2018, dated 2024).
Residue numbers refer to the chain shown, from its start.

How the values were obtained:
[1] = target: T1, ERα (wild type) (Homo sapiens, UniProt P03372); experiment: ERα (wild type) competition binding assay; settings: recombinant ERα wild type, 3H-estradiol competition, n=3
T1 sequence (P03372 1-595): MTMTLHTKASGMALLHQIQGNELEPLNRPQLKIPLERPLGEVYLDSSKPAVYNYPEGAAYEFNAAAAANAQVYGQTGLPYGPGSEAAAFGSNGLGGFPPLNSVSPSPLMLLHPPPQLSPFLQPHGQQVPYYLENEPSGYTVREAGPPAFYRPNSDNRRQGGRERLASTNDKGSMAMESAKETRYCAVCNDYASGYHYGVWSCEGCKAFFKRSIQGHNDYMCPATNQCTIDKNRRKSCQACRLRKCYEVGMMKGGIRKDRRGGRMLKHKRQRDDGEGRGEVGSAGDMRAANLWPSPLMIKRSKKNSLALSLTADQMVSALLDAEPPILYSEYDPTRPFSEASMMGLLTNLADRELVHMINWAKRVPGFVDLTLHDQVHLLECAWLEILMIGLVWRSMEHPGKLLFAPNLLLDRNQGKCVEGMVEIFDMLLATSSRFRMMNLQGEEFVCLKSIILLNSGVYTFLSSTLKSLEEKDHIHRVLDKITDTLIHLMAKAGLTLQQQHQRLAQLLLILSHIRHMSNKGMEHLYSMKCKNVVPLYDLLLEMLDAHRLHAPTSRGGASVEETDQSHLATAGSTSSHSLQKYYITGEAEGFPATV
Method: (§1) The purpose of the following ER competition binding assays is to determine the binding affinity of a test compound against ERα (wild type) and ERα (Y537S mutant) See Fanning et al., “Estrogen receptor alpha somatic mutations Y537S and D538G confer breast cancer endocrine resistance by stabilizing the activating function-2 binding conformation,” eLife 2016; 5:e12792.
(§2) Run the competition binding assay in a buffer containing 50 mM HEPES, pH 7.5, 1.5 mM EDTA, 150 mM NaCl, 10% glycerol, 1 mg/mL ovalbumin, and 5 mM DTT, using 0.025 µCi per well ^3H-estradiol (118 Ci/mmol, 1 mCi/mL), 7.2 ng/well ERα (wild type), or 7.2 ng/well ERα (Y537S mutant). Add the test compound at 10 different concentrations ranging from 10,000 nM to 0.5 nM, and determine nonspecific binding in the presence of 1 μM of […]. Incubate the binding reaction (140 μL) for 4 hours at room temperature, and then add cold dextran-charcoal buffer (70 μL) (containing per 50 mL of assay buffer, 0.75 g of charcoal and 0.25 g of dextran) to each reaction. Mix the plates for 8 minutes on an orbital shaker at 4° C. and then centrifuge at 3000 rpm at 4° C. for 10 minutes. […] After an incubation of 2.5 hours, read the plates in a Wallac Microbeta counter. […]

[2] = target: T2, ERα (Y537S mutant) (Homo sapiens, UniProt P03372, Y537S); experiment: ERα (Y537S mutant) competition binding assay; settings: 3H-estradiol competition, n=3
T2 sequence (P03372 1-595 Y537S): T1 sequence (P03372 1-595) with Y537S
Method: as §1, §2

[3] = tested on: MCF7-ESR1 Y537N mutant cells; experiment: Cell proliferation assay in MCF7-ESR1 Y537N-682; assay type: cell-based; settings: Homo sapiens, seven days, n=6, read-out: Relative IC50 (nM), cell proliferation

In the case of `O=C(c1ccc(OCCN2CC(CF)C2)cc1)c1c(-c2ccc(C(F)(F)F)cc2F)cnc2cc(O)ccc12` [Example 1, (4-{2-[3-(Fluoromethyl)azetidin-1-yl]ethoxy}phenyl){3-[2-fluoro-4-(trifluoromethyl)phenyl]-7-hydroxyquinolin-4-yl}methanone], the Ki [1] is reported as 3.78 ± 0.74 nM, the Ki [2] is reported as 21.2 ± 2.12 nM and the IC50 [3] is reported as 7.96 ± 3.69 nM.
